Target: Prothrombin (Homo sapiens, UniProt P00734)
Experiment: Dissociation constant was evaluated by competitive inhibition of alpha-thrombin using the method of Dixon enzyme assay.

| Structure (SMILES) | Ki [µM] |
| --- | --- |
| O=C(/N=N/c1ccccc1)NNc1ccccc1 | 1.7 |
| c1ccc(CN2CCN(Cc3ccccc3)CCN(Cc3ccccc3)CC2)cc1 | 410 |
